Data reported in patent US8933202B2, “AXL antibodies” (U3 Pharma GmbH, priority 2007, dated 2015).

Experiments:
[1] = tested on: NCI/ADR-RES ovarian cancer cells; experiment: TUNEL staining, combination with doxorubicin; type: cell-based, human; details: 24 h
From the text: As rat anti-Axl antibodies of the invention turned out to interfere with Gas6-mediated anti-apoptosis of serum-starved NIH3T3-Axl cl.7 fibroblasts, the question arose, whether antagonistic anti-Axl antibodies would synergize with chemotherapeutic agents in inducing apoptosis, thereby contributing to overcome drug resistance. In this example, NCI/ADR-RES (originally named MCF-7/AdrR) cells—a ovarian cancer cell line (Liscovitch and Ravid, 2007, Cancer Letters, 245, 350-352) displaying a high level of resistance to several agents including doxorubicin (Fairchild et al., 1987, Cancer Research, 47, 5141-5148; Xu et al., 2002, The Journal of Pharmacology and Experimental Therapeutics, 302, 963-971)—were incubated with the antagonistic anti-Axl antibody 11B7 and/or doxorubicin, and apoptosis rates were determined by TUNEL staining. In brief, 3×10^4 NCI/ADR-RES cells in normal growth medium were seeded per well of an 8-chamber culture slide (BD Falcon, cat#354118) which were pre-incubated with the same medium for 1 h at 37° C. The next morning, normal growth medium was removed and cells were washed with and cultured in serum-reduced (0.5% FCS) medium. In the evening, isotypic control antibody 1D5 or the antagonistic anti-Axl antibody 11B7 were added at final concentrations of 10 μg/ml each. In the morning of day 3, doxorubicin at final concentrations of 100 μM, 150 μM, or 200 μM was added, and cells were incubated at 37° C. After 24 h, cells were rinsed once with PBS, fixed with 4% formaldehyde in PBS (pH 7.5) for 20 min at room temperature, air-dried for 5 min, and stored at −20° C. Using the commercially available Fluorescein-FragEL™ kit (Oncogene, cat#QIA39, presently being distributed through Merck-Calbiochem), TUNEL staining was performed according to the supplier's manual instructions (chapter ‘Fluorescein-FragEL™ of cell preparations fixed on slides’, page 10). Applying fluorescence microscopy, cells were analyzed and photos were taken.

[2] = tested on: NCI-H292 lung cancer cells; experiment: Wound healing/scratch assay; type: cell-based, human; details: 10 μg/ml antibody, 24 h, compared to isotypic control antibody
From the text: To examine the migration and proliferation rates of different cells and culture conditions, in vitro wound healing/scratch assays are being employed for many years. These assays generally involve growing a confluent cell monolayer first. A small area is then disrupted and a group of cells are being destroyed or displaced by scratching a line through the layer with, for example, a pipette tip. The open gap is then inspected microscopically over time as the cells move in and fill the damaged area (“healing”). In brief, 1.5×10^6 NCI-H292 lung cancer cells were seeded per well of a 12 well dish and cultured in normal growth medium (RPMI, 10% FCS). After 8 h, cells were rinsed with PBS and starved in low serum medium (RPMI, 0.5% FCS) over night for 24 h. Using a sterile 200 μl pipette tip, three separate uniform wounds per well were scratched through the confluent NCI-H292 cell monolayers. […] Cells were permitted to migrate into the area of clearing for 24 h, washed once with PBS and fixed with ice cold Methanol (100%) at −20° C. After cells were stained with crystal violet (0.5% in 20% Methanol), rinsed with water and dried over night, photos of the wounds were taken.

| Molecule | apoptosis (TUNEL staining), doxorubicin with control antibody, 100 μM ([1]; 100 μM doxorubicin + 10 μg/ml control antibody) | apoptosis (TUNEL staining), doxorubicin with control antibody, 150 μM ([1]; 150 μM doxorubicin + 10 μg/ml control antibody) | re-population of the cleared area (wound closure) [2] |
| --- | --- | --- | --- |
| COc1cccc2c1C(=O)c1c(O)c3c(c(O)c1C2=O)C[C@@](O)(C(=O)CO)C[C@@H]3O[C@H]1C[C@H](N)[C@H](O)[C@H](C)O1 [doxorubicin, reference compound] | No TUNEL staining, and hence no apoptosis | only very week apoptosis | – |
| Ch11D5-IgG2: chimeric anti-AXL antibody 11D5 with human IgG2 (antibody) heavy: EVQLQESGPGLVKPSQSLSLTCSVTGYSITSNYWGWIRKFPGNKMEWIGHITNSGNTTYNPSLKSRISISRDTSRNQFFLQLNSVTTEDTATYYCAKGAFDYWGQGVMVTVSSASTKGPSVFPLAPCSRSTSESTAALGCLVKDYFPEPVTVSWNSGALTSGVHTFPAVLQSSGLYSLSSVVTVPSSNFGTQTYTCNVDHKPSNTKVDKTVERKCCVECPPCPAPPVAGPSVFLFPPKPKDTLMISRTPEVTCVVVDVSHEDPEVQFNWYVDGVEVHNAKTKPREEQFNSTFRVVSVLTVVHQDWLNGKEYKCKVSNKGLPAPIEKTISKTKGQPREPQVYTLPPSREEMTKNQVSLTCLVKGFYPSDIAVEWESNGQPENNYKTTPPMLDSDGSFFLYSKLTVDKSRWQQGNVFSCSVMHEALHNHYTQKSLSLSPGK light: DIQMTQSPSSMSTSLGDRVTITCRASQDIGNYLSWFQQKVGKSPRRMIYGAIKLAVGVPSRFSGSRSGSDYSLTISSLESEDMAIYYCLQYIQFPLTFGSGTKLELKRTVAAPSVFIFPPSDEQLKSGTASVVCLLNNFYPREAKVQWKVDNALQSGNSQESVTEQDSKDSTYSLSSTLTLSKADYEKHKVYACEVTHQGLSSPVTKSFNRGEC | – | – | reduced the re-population of the cleared area |
| ch11B7-IgG2: chimeric anti-AXL antibody 11B7 with human IgG2 (antibody) heavy: EVQLQESGPGLVKPSQSLSLTCSVTGYSITSNYWGWIRKFPGDKMEWMGYITYSGSTSYNPSLKSRISITRDTSKNQFFLQLNSVTSEDTATYYCAITTFYYWGQGVMVTVSSASTKGPSVFPLAPCSRSTSESTAALGCLVKDYFPEPVTVSWNSGALTSGVHTFPAVLQSSGLYSLSSVVTVPSSNFGTQTYTCNVDHKPSNTKVDKTVERKCCVECPPCPAPPVAGPSVFLFPPKPKDTLMISRTPEVTCVVVDVSHEDPEVQFNWYVDGVEVHNAKTKPREEQFNSTFRVVSVLTVVHQDWLNGKEYKCKVSNKGLPAPIEKTISKTKGQPREPQVYTLPPSREEMTKNQVSLTCLVKGFYPSDIAVEWESNGQPENNYKTTPPMLDSDGSFFLYSKLTVDKSRWQQGNVFSCSVMHEALHNHYTQKSLSLSPGK light: DIQMTQAPSSLPASLGDRVTITCRASQDIGNYLRWFQQKPGKSPRLMISGATNLAAGVPSRFSGSRSGSDYSLTISSLESEDMADYYCLQSKESPWTFGGGTKLELKRTVAAPSVFIFPPSDEQLKSGTASVVCLLNNFYPREAKVQWKVDNALQSGNSQESVTEQDSKDSTYSLSSTLTLSKADYEKHKVYACEVTHQGLSSPVTKSFNRGEC | – | – | reduced the re-population of the cleared area |
